Laboratory results from article PMC2685009, “Identification and Characterization of Inhibitors of Human Apurinic/apyrimidinic Endonuclease APE1” (PLoS ONE, 2009).
Read-outs that look alike come from different tables or passages of the source.

Key:
APE1 [1] = biological target: T1, APE1 (Homo sapiens, UniProt P27695); test: qHTS fluorogenic AP site incision assay (TAMRA/BHQ-2 red substrate, 1536-well); assay type: biochemical
T1 construct: made in house
Protocol: Recombinant human APE1 and E. coli EndoIV were purified as previously described. Deoxyoligonucleotides containing a tetrahydrofuran (THF) AP site analog, carboxytetramethyl rhodamine (TAMRA), or Black Hole Quencher-2 (BHQ-2), as appropriate (see Figure 1), were purchased from Biosearch Technologies, Inc., (Novato, CA). To create double-stranded DNA substrates, equal volumes of 200 µM solutions of the respective strands in reaction buffer were mixed and incubated at 95°C for 5 min. The annealing mixture was allowed to cool gradually to room temperature. Annealing and assay experiments were performed in the following buffer: 50 mM Tris pH 7.5, 25 mM NaCl, 2 mM MgCl2, 1 mM DTT, 0.01% Tween-20.
Initial optimizations were carried out in 384-well format at a 40 µL total reaction volume. Briefly, 30 µL of APE1 were pipetted into the plate and incubated at room temperature for 10 min; subsequently, 10 µL of substrate were added to start the reaction. The final assay concentrations of the enzyme and substrate were 0.75 nM and 50 nM, respectively. Kinetic fluorescence data were collected on a ViewLux high-throughput CCD imager (Perkin Elmer, Waltham, MA) equipped with standard FITC (excitation filter 480 nm and emission filter 530 nm) or BODIPY (excitation filter 525 nm and emission filter 598 nm) optics.
Three µl of reagents (buffer in columns 3 and 4 as negative control and APE1 in columns 1, 2, 5–48) were dispensed into a 1536-well plate. Compounds (DMSO solutions) and control (DMSO only) (23 nL) were transferred via Kalypsys pintool equipped with 1536-pin array. The plate was incubated for 15 min at room temperature, and then 1 µL of substrate (50 nM final concentration) was added to start the reaction. Library plates were screened from the lowest to highest concentration.
Screening data were corrected and normalized, and concentration–effect relationships were derived by using in-house developed, publicly available algorithms (http://www.ncgc.nih.gov/pub/openhts/curvefit/). Percent activity was computed after normalization against the uninhibited, or neutral, control (64 wells, entire columns 1 and 2) and the no-enzyme, or 100% inhibited, control (64 wells, entire columns 3 and 4), respectively. A four parameter Hill equation was fitted to the concentration-response data by minimizing the residual error between the modeled and observed responses.

APE1 [2] = biological target: T1, APE1; test: Radiotracer (32P, gel-based) incision assay; assay type: biochemical; settings: for Gel: inhibition detected or not in radiotracer incision assay: APE1, 32P-labeled THF substrate
[3] = biological target: unlabeled double-stranded DNA substrate; test: ThO dye-displacement assay (DNA binding); settings: for IC50: 50 nM DNA, 250 nM ThO; for ThO displacement (in words): LOPAC dose-response profiling
E. coli EndoIV = biological target: T2, E. coli EndoIV (Escherichia coli, UniProt P0A6C1); test: E. coli Endonuclease IV (EndoIV) profiling assay; assay type: biochemical
T2 construct: made in house
Protocol: EndoIV enzyme and substrate (same as that used with APE1) optimization tests were initially performed at a 40 µL final volume in a 384-well format. Reaction concentrations of 2 nM EndoIV and 50 nM DNA substrate were selected for subsequent experiments. For running the assay in 1536-well format, the same protocol as described for APE1 above was followed.

[4] = test system: AP site cleavage activity of HEK 293T whole cell extract; test: Whole cell extract AP endonuclease activity assay (HEK 293T); assay type: biochemical, human; settings: inhibitor at 100 µM
Protocol: (§1) The radiotracer assay was performed essentially as described. In brief, prioritized candidate inhibitor compounds from the qHTS assay were incubated at various concentrations (100 µM data shown) with APE1 (100 pg) at room temperature for 15 min in 25 mM Tris pH 7.5, 25 mM NaCl, 1 mM MgCl2, 1 mM DTT and 0.01% Tween-20. At that time, 0.5 pmol ^32P-radiolabeled THF-containing 34 mer double-stranded DNA substrate was added. Incision reactions were then carried out immediately at 37°C for 10 min in a final volume of 10 µL. After the addition of an equal volume of stop buffer (0.05% bromophenol blue and xylene cynol, 20 mM EDTA, 95% formamide), the radiolabeled substrate and product were separated on a standard polyacrylamide denaturing gel and quantified by phosphorimager analysis.
(§2) HEK 293T or HeLa cells – maintained in DMEM with 10% fetal bovine serum and 1% Penicillin-Streptomycin – were harvested, washed with 1× PBS, re-suspended in cold 222 mM KCl, incubated on ice for 30 min, and clarified by centrifugation at 12,000×g for 15 min at 4°C [23]. The supernatant (whole cell extract) was retained, the protein concentration determined using the Bio-Rad Bradford reagent, and aliquots were stored at −80°C. AP endonuclease activity assays were performed with or without candidate inhibitor compounds as described above, except 60 ng HEK 293T or 80 ng of HeLa whole cell extract was used.

[5] = test system: AP site cleavage activity of HeLa whole cell extract; test: Whole cell extract AP endonuclease activity assay (HeLa); assay type: biochemical, human; settings: inhibitor at 100 µM
Protocol: as §1, §2

HeLa cells [6] = test: Cell-based colony survival assay with MMS; design: species or system human; settings: HeLa colony formation, 0.25 mM MMS, 1 or 5 µM inhibitor
Protocol: To measure colony survival, HeLa cells were plated in 6-well plates 12–20 hr prior to treatment. Cells were treated as follows: (i) exposed only to control medium, (ii) exposed to 0.25 mM MMS alone for 1 hr, (iii) exposed to 1 or 5 µM of the indicated inhibitor compound alone for 4 hr, or (iii) exposed to inhibitor compound alone for 3 hr and then with MMS for an additional 1 hr at 37°C. Following treatment, cells were washed once with 1× PBS and incubated in regular maintenance media (DMEM, 10% FBS) at 37°C for 10–15 days. Colonies formed were fixed in methanol, stained in methylene blue (Sigma), and counted to determine percent survival relative to the untreated controls.

HeLa cells [7] = test: AP site measurement in chromosomal DNA; assay type: cell-based, human; settings: for AP site damage, inhibitor alone: 5 µM inhibitor alone, relative to control cells; for AP site damage, inhibitor plus MMS: 5 µM inhibitor plus MMS
Protocol: HeLa cells were treated as above, except only at 5 µM inhibitor where indicated. Following exposure, chromosomal DNA was isolated and steady-state AP site levels were measured using the DNA Damage Quantification Kit from Dojindo Molecular Technologies, Inc. (Gaithersburg, MD) as previously described.

[8] = design: method as in PMID 18042731; settings: cited from earlier work
[9] = 50 nM substrate, 0.75 nM APE1, read-out: qHTS IC50 (primary screen, APE1)
[10] = range of inhibitor concentrations, data not shown, read-out: approximate IC50 in radiotracer assay
[11] = 2 nM EndoIV, 50 nM substrate, read-out: Endo IV IC50 (E. coli EndoIV profiling)

T1 sequence (P27695 whole entry): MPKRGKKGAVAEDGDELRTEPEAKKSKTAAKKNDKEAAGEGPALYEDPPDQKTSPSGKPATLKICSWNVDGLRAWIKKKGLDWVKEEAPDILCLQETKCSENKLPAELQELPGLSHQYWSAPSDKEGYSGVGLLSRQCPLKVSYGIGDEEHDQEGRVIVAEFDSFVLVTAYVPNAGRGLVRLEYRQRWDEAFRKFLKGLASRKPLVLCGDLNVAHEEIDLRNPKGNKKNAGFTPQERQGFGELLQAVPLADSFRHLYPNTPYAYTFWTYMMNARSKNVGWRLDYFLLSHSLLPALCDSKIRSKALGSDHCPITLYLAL

Row | SMILES | IC50 (APE1 [1]; [9]) | Gel: inhibition detected or not in radiotracer incision assay (APE1 [2]) | IC50 (APE1 [2]; [10]) | IC50 [3] | ThO displacement (in words) [3] | activity against EndoIV compared with APE1 (in words) (E. coli EndoIV) | IC50 (E. coli EndoIV; [11]) | inhibition of total AP site cleavage activity [4] | inhibition of total AP site cleavage activity [5] | other results
1 | C=C/C(C)=C/[C@@]1(C)SC(=O)C(C)=C1O [thiolactomycin] | 1000 nM | Yes | 500 to 2000 nM | > 57000 nM | weak or no displacement activity | completely inactive or weakly active | 20000 nM | no effect | no effect | ThO displacement (in words) ([3]; listed as Thiolactomycin): does not affect ThO displacement
2 | CC(=O)OCC1=C(C(=O)O)N2C(=O)[C@@H](NC(=O)CSc3ccncc3)[C@H]2SC1 [cephapirin sodium] | 8900 nM | No | > 50000 nM | > 57000 nM | – | similarly potent against each endonuclease | 16000 nM | – | – | –
3 | N#C/C(=C\c1ccc(O)c(O)c1)C(=O)c1ccc(O)c(O)c1 [Tyrphostin AG 538] | 280 nM | Yes | 500 to 2000 nM | 20000 nM | weak or no displacement activity | similarly potent against each endonuclease | 280 nM | mild inhibition | mild inhibition | –
4 | NC(Cc1cc(O)c(O)cc1O)C(=O)O (racemic) [6-hydroxy-DL DOPA, 6-hydroxy-DL-DOPA] | – | Yes | – | 7900 nM | – | completely inactive or weakly active | – | complete inhibition | complete inhibition | IC50 (APE1 [1]): 110 nM; IC50 (APE1 [2]): < 500 nM; IC50 (E. coli EndoIV): 10000 nM; percent cell killing, MMS plus inhibitor relative to alkylator or inhibitor alone (HeLa cells [6]): greater than additive increase; AP site damage, inhibitor alone (HeLa cells [7]): increased AP site damage relative to the control cells; AP site damage, inhibitor plus MMS (HeLa cells [7]): potentiated the genotoxic potential of MMS
5 | Nc1c(S(=O)(=O)O)cc(Nc2ccc(Nc3nc(Cl)nc(Nc4cccc(S(=O)(=O)O)c4)n3)c(S(=O)(=O)O)c2)c2c1C(=O)c1ccccc1C2=O [Reactive Blue 2] | 250 nM | Yes | < 500 nM | 8900 nM | – | completely inactive or weakly active | 10000 nM | ≥ 80% | ≥ 80% | percent cell killing, MMS plus inhibitor relative to alkylator or inhibitor alone (HeLa cells [6]): greater than additive increase; AP site damage, inhibitor alone (HeLa cells [7]): increased AP site damage relative to the control cells; AP site damage, inhibitor plus MMS (HeLa cells [7]): potentiated the genotoxic potential of MMS
6 | COc1cccc2c1C(=O)c1c(O)c3c(c(O)c1C2=O)C[C@@](O)(C(=O)CO)C[C@@H]3O[C@H]1C[C@H](N)[C@H](O)[C@H](C)O1 [doxorubicin] | – | – | – | – | strong ThO displacement profiles | – | – | – | – | –
7 | Cn1cc(NC(=O)c2cc(NC(=O)c3cc(NC=O)cn3C)cn2C)cc1C(=O)NCCC(=N)N [distamycin] | – | – | – | – | strong displacement activity | – | – | – | – | –
8 | CC(=O)[C@]1(O)Cc2c(O)c3c(c(O)c2[C@@H](O[C@H]2C[C@H](N)[C@H](O)[C@H](C)O2)C1)C(=O)c1ccccc1C3=O [idarubicin] | – | – | – | – | strong ThO displacement profiles | – | – | – | – | –
9 | Cc1nc(N=Nc2cc(S(=O)(=O)O)c3cc([N+](=O)[O-])cc(S(=O)(=O)O)c3c2)c(COP(=O)(O)O)c(C=O)c1O [PPNDS tetrasodium] | 2800 nM | No | > 50000 nM | 10000 nM | – | – | 16000 nM | – | – | –
10 | O=C1c2c(O)ccc(O)c2C(=O)c2c(NCCNCCO)ccc(NCCNCCO)c21 [mitoxantrone] | 2000 nM | Yes | < 500 nM | 350 nM | positive | similarly potent against each endonuclease | 2000 nM | – | – | –
11 | O=C(O)c1cc[c]([Sb](=[O])([OH])[OH])cc1[N+](=O)[O-] [NSC-13755] | – | – | – | – | – | – | – | complete inhibition | complete inhibition | outcome in cell-based experiments [8]: fail in cell-based experiments
12 | O=C(O)C1=CC(=C(c2ccc(O)c(C(=O)O)c2)c2ccc(O)c(C(=O)O)c2)C=CC1=O [aurintricarboxylic acid] | 55 nM | Yes | – | 1300 nM | – | completely inactive or weakly active | 25000 nM | – | – | APE1 inhibition in fluorogenic assay (in words) (APE1 [1]): low nanomolar range
13 | CN(N=O)c1ccc(O)c(O)c1 [methyl 3,4-dephostatin, methyl-3,4-dephostatin] | 500 nM | Yes | 500 to 2000 nM | 14000 nM | – | completely inactive or weakly active | 8900 nM | no effect | no effect | –
14 | CO/N=C(\C(=O)N[C@@H]1C(=O)N2C(C(=O)O)=C(CSc3nc(=O)c(=O)[nH]n3C)CS[C@H]12)c1csc(N)n1 [ceftriaxone sodium] | 2200 nM | No | > 50000 nM | > 57000 nM | – | – | 11000 nM | – | – | –
